Measured values: article PMC6133293 (SLAS discovery : advancing life sciences R & D, 2018)

Target: G551D-CFTR (Homo sapiens, UniProt P13569, G551D)
Assay: short-circuit current in FRT cells, positive control potentiator
Format: cell-based

Chain of G551D-CFTR (P13569 whole entry G551D): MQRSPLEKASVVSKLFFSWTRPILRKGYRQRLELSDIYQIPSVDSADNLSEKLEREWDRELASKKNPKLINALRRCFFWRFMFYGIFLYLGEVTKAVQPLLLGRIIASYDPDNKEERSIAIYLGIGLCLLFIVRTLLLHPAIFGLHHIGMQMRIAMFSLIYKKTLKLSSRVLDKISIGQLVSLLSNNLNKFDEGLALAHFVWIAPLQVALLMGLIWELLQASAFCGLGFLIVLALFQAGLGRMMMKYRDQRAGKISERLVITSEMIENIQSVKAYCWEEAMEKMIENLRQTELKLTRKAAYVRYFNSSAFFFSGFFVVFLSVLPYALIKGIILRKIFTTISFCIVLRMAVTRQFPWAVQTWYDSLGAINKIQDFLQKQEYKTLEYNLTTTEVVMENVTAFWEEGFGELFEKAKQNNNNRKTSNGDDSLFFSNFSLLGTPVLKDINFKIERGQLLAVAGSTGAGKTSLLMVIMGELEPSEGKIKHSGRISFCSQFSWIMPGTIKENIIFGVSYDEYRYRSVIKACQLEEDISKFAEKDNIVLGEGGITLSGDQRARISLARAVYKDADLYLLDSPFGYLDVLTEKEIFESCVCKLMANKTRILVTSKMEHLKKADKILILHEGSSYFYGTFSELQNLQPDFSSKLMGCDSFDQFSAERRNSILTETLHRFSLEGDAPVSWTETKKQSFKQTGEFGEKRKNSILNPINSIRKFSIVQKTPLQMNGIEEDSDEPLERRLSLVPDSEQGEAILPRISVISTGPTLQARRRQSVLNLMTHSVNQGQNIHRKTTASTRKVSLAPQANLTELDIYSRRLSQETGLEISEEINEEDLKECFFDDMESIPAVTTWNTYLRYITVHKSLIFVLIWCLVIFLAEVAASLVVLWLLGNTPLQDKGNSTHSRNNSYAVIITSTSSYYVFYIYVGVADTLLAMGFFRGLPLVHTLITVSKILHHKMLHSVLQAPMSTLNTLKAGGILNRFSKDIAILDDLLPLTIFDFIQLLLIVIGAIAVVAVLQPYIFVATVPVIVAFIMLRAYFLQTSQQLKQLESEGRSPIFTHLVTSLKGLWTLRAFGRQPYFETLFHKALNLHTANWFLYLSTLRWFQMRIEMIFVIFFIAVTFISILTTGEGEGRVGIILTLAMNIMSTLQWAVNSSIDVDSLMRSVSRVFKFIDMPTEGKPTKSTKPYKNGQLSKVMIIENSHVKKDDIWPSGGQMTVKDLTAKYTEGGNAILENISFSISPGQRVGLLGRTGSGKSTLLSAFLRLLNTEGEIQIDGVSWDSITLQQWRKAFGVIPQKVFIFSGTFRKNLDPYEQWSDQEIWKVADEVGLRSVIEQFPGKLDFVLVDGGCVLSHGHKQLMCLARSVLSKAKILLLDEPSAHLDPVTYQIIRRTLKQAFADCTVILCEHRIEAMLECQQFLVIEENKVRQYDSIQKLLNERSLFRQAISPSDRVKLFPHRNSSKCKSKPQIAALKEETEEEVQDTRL

`CC(C)(C)c1cc(C(C)(C)C)c(NC(=O)c2c[nH]c3ccccc3c2=O)cc1O` [VX-770] was tested. Which “short-circuit current in FRT cells, positive control potentiator” value did it give?
Its value is “A-01 did not activate G551D-CFTR at high concentration, with VX-770 shown as the positive control”.
